The record followed here is US12691107B2, “Methods for the treatment and prevention of lung infections caused by gram-positive bacteria, fungus, or virus by administration of tafenoquine” (priority 2020, dated 2026).

What all share (type): cell-based
For assay [1], the system named is P. variotii. In words: Antifungal MIC (RPMI-1640 microdilution). Conditions: Paecilomyces variotii, isolate MYA-3630. On the technique in general: Broth dilution looks for growth in wells or tubes with falling amounts of substance.
For assay [2], the system named is Candida guilliermondii. In words: Antifungal MIC (RPMI-1640 microdilution). Conditions: Meyerozyma guilliermondii.
The subject of assay [3] is Coccidioides sp. In words: microbe, parasite or virus in culture.
Assay [4] deals with Candida parapsilosis. In words: Antifungal MIC (RPMI-1640 microdilution). Conditions: for MIC50: Lodderomyces parapsilosis.
For assay [5], the system named is Cryptococcus neoformans. In words: Antifungal MIC (RPMI-1640 microdilution). Conditions: Cryptococcus neoformans.
Assay [6] deals with Blastomyces dermatitidis. In words: Antifungal MIC (RPMI-1640 microdilution).
The subject of assay [7] is Candida glabrata. In words: Antifungal MIC (RPMI-1640 microdilution). Conditions: Nakaseomyces glabratus.
In assay [8] the test system is Emergomyces sp. In words: Antifungal MIC (RPMI-1640 microdilution).
Assay [9] concerns Candida albicans. In words: Antifungal MIC (RPMI-1640 microdilution).
For assay [10], the system named is Histoplasma capsulatum. In words: microbe, parasite or virus in culture.
Assay [11] concerns Scedosporium sp. In words: Antifungal MIC (RPMI-1640 microdilution). Conditions: Scedosporium.
Assay [12] deals with C. krusei. In words: Antifungal MIC (RPMI-1640 microdilution). Conditions: Pichia kudriavzevii, ATCC6258, read-out: MIC 50% inhibition; isolate ATCC 6258.
For assay [13], the system named is Candida auris. In words: Antifungal MIC (RPMI-1640 microdilution). Conditions: Candidozyma auris.
Assay [14] has as its system M. tuberculosis [ATCC #27294]. In words: MIC against M. tuberculosis in 7H9 media. Conditions: Mycobacterium tuberculosis, read-out: MIC.
Assay [15] relates to Streptococcus pneumoniae. In words: Antibacterial MIC (broth microdilution). Conditions: Streptococcus pneumoniae, CA-MHB with 3% LHB.
Assay [16] concerns Staphylococcus aureus. In words: Antibacterial MIC (broth microdilution).
Assay [17] relates to K. pneumoniae. In words: Antibacterial MIC (broth microdilution). Conditions: Klebsiella pneumoniae.
Assay [18] deals with E. coli. In words: Antibacterial MIC (broth microdilution). Here is the method: Growth Medium—Cation adjusted Mueller-Hinton broth was used as the test medium. Broth for panel preparation was prepared from commercial dehydrated medium (Difco formulation, BD Diagnostics, catalog number 275730).
Dilution of Investigational Agents—Polystyrene test tubes were used to prepare the drug dilutions and sterile U-shaped 96-well polystyrene microtiter trays were used for performing the MIC assays. Stock solutions of the investigational agents were prepared at concentrations 100-times the highest concentration to be tested (6400-1.25 μg/ml) using dimethyl sulfoxide. Aliquots of the stock solutions were dispensed into polypropylene vials and stored at −20° C. Further dilutions (1:50) were made in the culture medium (cation-adjusted Mueller-Hinton medium).
After the dilutions of the working 2-fold investigational antibacterial solutions were prepared, 50 μL of each concentration was transferred into rows of the first 10 wells of each 12-well column of the U-shaped disposable 96-well microtiter trays using a multichannel pipettor. The 11th well in each row served as the sterility control, and the 12th well contained only culture medium to serve as the growth control for each isolate. In like manner, the control drug for the organism being tested was prepared in a separate 96 well panel exactly as described above. A 50 μL volume of the standardized inoculum suspension of each test isolate was prepared in culture medium to directly inoculate each test well of the drug containing microtiter tray.
Inoculum Preparation—Colonies of each strain generated on sheep blood agar plates with overnight growth at 35° C. in ambient air were used to directly prepare a suspension equivalent in density to the 0.5 McFarland opacity standard. The exact turbidity of each suspension was determined using a desktop portable photometer. For panels containing 2× drug concentrations, a 1:100 dilution of the McFarland organism suspension was prepared in cation-adjusted Mueller-Hinton broth and 50 μL aliquots of each test (and control) strain was added to each well of the designated rows of the microtiter trays using a multichannel pipettor. The target inoculum concentration was 5×10^5 CFU/ml in each well.
Trays were removed and each well were inspected for evidence of growth (turbidity). The MIC was defined as the lowest concentration of the investigational agent and the control drug that prevents visibly discernible growth in the test wells.

In assay [19] the test system is A. baumannii. In words: Antibacterial MIC (broth microdilution). Conditions: Acinetobacter baumannii.
Assay [20] concerns P. aeruginosa. In words: Antibacterial MIC (broth microdilution). Conditions: Pseudomonas aeruginosa.
For assay [21], the system named is Rhizopus arrhizus. In words: Antifungal MIC (RPMI-1640 microdilution).
Assay [22] concerns Sporothrix sp. In words: Antifungal MIC (RPMI-1640 microdilution).
Assay [23] relates to Saksenaea sp. In words: Antifungal MIC (RPMI-1640 microdilution).
Assay [24] deals with Apophysomyces sp. In words: Antifungal MIC (RPMI-1640 microdilution).

SMILES strings stand for the structures. Converted amounts (≈) assume the structure as drawn. Like-named read-outs stand apart in the source and are kept apart here.

Consider `OC(Cn1cncn1)(Cn1cncn1)c1ccc(F)cc1F` [Fluconazole], for which the MIC50 in assay [1] (read-out: MIC 50% inhibition) stood at 8 µg/mL (≈ 26.1 µM); in assay [2] (read-out: MIC 50% inhibition, isolate Cgui1) it was 1 µg/mL (≈ 3.27 µM); in [2] (read-out: MIC 50% inhibition, isolate Cgui2) it was 2 µg/mL (≈ 6.53 µM); in [2] (read-out: MIC 50% inhibition, isolate Cgui3), 2 µg/mL (≈ 6.53 µM); in [3] (read-out: MIC 50% inhibition, isolate Cocci1), 16 µg/mL (≈ 52.2 µM); in [3] (read-out: MIC 50% inhibition, isolate Cocci2), 32 µg/mL (≈ 104 µM). Besides, the MIC50 was 4 µg/mL (≈ 13.1 µM) in assay [3] (read-out: MIC 50% inhibition, isolate D117-143); 1 µg/mL (≈ 3.27 µM) in [4] (ATCC22019, read-out: MIC 50% inhibition, isolate ATCC 22019); 0.5 µg/mL (≈ 1.63 µM) in assay [4] (read-out: MIC 50% inhibition, isolate CP1); 64 µg/mL (≈ 209 µM) in assay [5] (read-out: MIC 50% inhibition, isolate CN3); 16 µg/mL (≈ 52.2 µM) in assay [5] (read-out: MIC 50% inhibition, isolate H99); 4 µg/mL (≈ 13.1 µM) in assay [5] (read-out: MIC 50% inhibition, isolate USC1597). Further, the MIC50 was not above 0.03 µg/mL in [6] (read-out: MIC 50% inhibition, isolate Blasto1); not above 0.03 µg/mL in [6] (read-out: MIC 50% inhibition, isolate Blasto2); not above 0.03 µg/mL in assay [6] (read-out: MIC 50% inhibition, isolate Blasto3); more than 64 µg/mL in [7] (read-out: MIC 50% inhibition, isolate 05-62); 8 µg/mL (≈ 26.1 µM) in [7] (read-out: MIC 50% inhibition, isolate 05-761); 32 µg/mL (≈ 104 µM) in assay [7] (read-out: MIC 50% inhibition, isolate CG3). Moreover, the MIC50 in assay [8] (read-out: MIC 50% inhibition, isolate Emerg2) was not above 0.03 µg/mL; in assay [8] (read-out: MIC 50% inhibition, isolate Emerg3), not above 0.03 µg/mL; in assay [9] (ATCC90028, read-out: MIC 50% inhibition, isolate ATCC 90028) it was 0.25 µg/mL (≈ 0.816 µM); in assay [9] (read-out: MIC 50% inhibition, isolate CA3), more than 64 µg/mL; in assay [9] (read-out: MIC 50% inhibition, isolate SC5314) it was 0.5 µg/mL (≈ 1.63 µM); in assay [10] (read-out: MIC 50% inhibition, isolate HC1), 0.125 µg/mL (≈ 0.408 µM). Further, the MIC50 in assay [10] (read-out: MIC 50% inhibition, isolate HC2) was not above 0.03 µg/mL; in assay [10] (read-out: MIC 50% inhibition, isolate HC3), not above 0.03 µg/mL; in assay [11] (read-out: MIC 50% inhibition, isolate Scedo1), 0.125 µg/mL (≈ 0.408 µM); in assay [11] (read-out: MIC 50% inhibition, isolate 00-180) it was 0.125 µg/mL (≈ 0.408 µM); in assay [11] (read-out: MIC 50% inhibition, isolate LPI) it was 4 µg/mL (≈ 13.1 µM); in assay [12], 32 µg/mL (≈ 104 µM). The MIC50 was more than 64 µg/mL in assay [13] (read-out: MIC 50% inhibition, isolate DI17-46); more than 64 µg/mL in [13] (read-out: MIC 50% inhibition, isolate DI17-47); 2 µg/mL (≈ 6.53 µM) in [13] (read-out: MIC 50% inhibition, isolate DI17-48). The “MIC 50% inhibition” value in assay [4] (isolate CP2) and in [4] (isolate CP3) was 0.5 µg/mL (≈ 1.63 µM) throughout.

Take `NNC(=O)c1ccncc1` [Isoniazid]: the MIC (as a rule, the lowest concentration found to suppress growth) in [14] (ATCC27294, 168 h, 7H9 with BSA, DPPC and cholesterol, 1 week) is 0.2 µM (≈ 0.0274 µg/mL); in assay [14] (ATCC27294, 168 h, 7H9 with casitone and DPPC, 1 week) it was 0.07 µM (≈ 0.0096 µg/mL); in assay [14] (ATCC27294, 168 h, 7H9 with glucose and BSA, 1 week), 0.2 µM (≈ 0.0274 µg/mL); in assay [14] (ATCC27294, 168 h, 7H9 with glucose and casitone, 1 week) it was 0.1 µM (≈ 0.0137 µg/mL); in [14] (ATCC27294, 336 h, 7H9 with BSA, DPPC and cholesterol, 2 weeks), 0.3 µM (≈ 0.0411 µg/mL); in assay [14] (ATCC27294, 336 h, 7H9 with casitone and DPPC, 2 weeks) it was 0.1 µM (≈ 0.0137 µg/mL). Further, the MIC came to 0.3 µM (≈ 0.0411 µg/mL) in assay [14] (ATCC27294, 336 h, 7H9 with glucose and BSA, 2 weeks); 0.15 µM (≈ 0.0206 µg/mL) in assay [14] (ATCC27294, 336 h, 7H9 with glucose and casitone, 2 weeks).

Take `CN[C@H](CC(C)C)C(=O)N[C@H]1C(=O)N[C@@H](CC(N)=O)C(=O)N[C@H]2C(=O)N[C@H]3C(=O)N[C@H](C(=O)N[C@H](C(=O)O)c4cc(O)cc(O)c4-c4cc3ccc4O)[C@H](O)c3ccc(c(Cl)c3)Oc3cc2cc(c3O[C@@H]2O[C@H](CO)[C@@H](O)[C@H](O)[C@H]2O[C@H]2C[C@](C)(N)[C@H](O)[C@H](C)O2)Oc2ccc(cc2Cl)[C@H]1O` [Vancomycin]: the MIC in assay [15] (ATCC49619, isolate ATCC 49619) is not above 0.125 µg/mL; in assay [15] (isolate CO314937), not above 0.125 µg/mL; in assay [15] (isolate MD77773), 0.25 µg/mL (≈ 0.173 µM); in assay [16] (Staphylococcus aureus) it was 1 µg/mL (≈ 0.69 µM); in assay [16] (Staphylococcus aureus, ATCC29213), 1 µg/mL (≈ 0.69 µM); in assay [16] (isolate 6229), 1 µg/mL (≈ 0.69 µM).

As for `C[C@@H](O)[C@H]1C(=O)N2C(C(=O)O)=C(S[C@@H]3CN[C@H](C(=O)N(C)C)C3)[C@H](C)[C@H]12` [Meropenem], the MIC is not above 0.125 µg/mL in assay [17] (ATCC70063, isolate ATCC 70063); 64 µg/mL (≈ 167 µM) in assay [17] (isolate AR-97); more than 64 µg/mL in assay [17] (isolate AR-113); not above 0.125 µg/mL in [18] (Escherichia coli, ATCC25922, isolate ATCC 25922, read-out: MIC); not above 0.125 µg/mL in assay [18] (Escherichia coli, isolate J4243 (MO72), read-out: MIC); not above 0.125 µg/mL in assay [18] (isolate J4244 (JJ1886)). Also, the MIC in [19] (ATCC17978, isolate ATCC 17978) is not above 0.125 µg/mL; in assay [19] (isolate AR-88), more than 64 µg/mL; in assay [19] (isolate AR-273) it was 64 µg/mL (≈ 167 µM); in assay [20] (ATCC27853, isolate ATCC 27853), 0.25 µg/mL (≈ 0.652 µM); in assay [20] (isolate AR-230), more than 64 µg/mL; in assay [20] (isolate J4242), 8 µg/mL (≈ 20.9 µM).

As for `CC[C@@H]([C@H](C)O)n1ncn(-c2ccc(N3CCN(c4ccc(OC[C@@H]5CO[C@@](Cn6cncn6)(c6ccc(F)cc6F)C5)cc4)CC3)cc2)c1=O` [Posaconazole], the minimum inhibitory concentration (MIC) in assay [1] (read-out: MIC 100% inhibition) was not above 0.03 µg/mL; in [21] (read-out: MIC 100% inhibition, isolate 99-880), 1 µg/mL (≈ 1.43 µM); in assay [21] (read-out: MIC 100% inhibition, isolate 99-892), 0.25 µg/mL (≈ 0.357 µM); in assay [21] (read-out: MIC 100% inhibition, isolate RAI), 0.125 µg/mL (≈ 0.178 µM); in assay [22] (read-out: MIC 100% inhibition, isolate Sporo1) it was 0.06 µg/mL (≈ 0.0856 µM); in [22] (read-out: MIC 100% inhibition, isolate Sporo2), 1 µg/mL (≈ 1.43 µM). Besides, the minimum inhibitory concentration (MIC) was 0.06 µg/mL (≈ 0.0856 µM) in assay [22] (read-out: MIC 100% inhibition, isolate Sporo3); not above 0.03 µg/mL in assay [23] (read-out: MIC 100% inhibition, isolate Sak1); 0.06 µg/mL (≈ 0.0856 µM) in assay [23] (read-out: MIC 100% inhibition, isolate Sak2); not above 0.03 µg/mL in assay [23] (read-out: MIC 100% inhibition, isolate Sak3); 0.06 µg/mL (≈ 0.0856 µM) in [24] (read-out: MIC 100% inhibition, isolate Apo1); not above 0.03 µg/mL in [24] (read-out: MIC 100% inhibition, isolate Apo2). For the same compound, in [24] (read-out: MIC 100% inhibition, isolate Apo3), the MIC was determined as 0.5 µg/mL (≈ 0.713 µM).
